According to ChEMBL document CHEMBL5247588, “Design and characterization of PROTAC degraders specific to protein N-terminal methyltransferase 1” (Eur J Med Chem, 2022):
Active and inactive are the calls of the source. The calls are words filed in the database; no cut-off is given here.

What was measured:
[1] = biological target: T1, N-terminal Xaa-Pro-Lys N-methyltransferase 1 (Homo sapiens, UniProt Q9BV86); experiment: Inhibition of NTMT1 (unknown origin) using SPKRIAKRRS(CONH2) peptide as substrate assessed as SAH production incubated for 10 mins in the presence of SAM by HPLC analysis
T1 sequence (Q9BV86 whole entry): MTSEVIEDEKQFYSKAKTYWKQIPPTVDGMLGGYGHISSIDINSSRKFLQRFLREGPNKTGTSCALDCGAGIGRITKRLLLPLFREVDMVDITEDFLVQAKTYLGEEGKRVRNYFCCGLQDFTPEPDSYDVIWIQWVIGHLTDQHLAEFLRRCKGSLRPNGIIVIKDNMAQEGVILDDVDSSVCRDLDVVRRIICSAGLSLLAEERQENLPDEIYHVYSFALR

[2] = biological target: T2, N-terminal Xaa-Pro-Lys N-methyltransferase 1 (Homo sapiens) (UniProt Q9BV86); experiment: Potency index, ratio of DC541 IC50 to test compound IC50 for inhibition of NTMT1 (unknown origin) using SPKRIAKRRS(CONH2) peptide as substrate assessed as SAH production incubated for 10 mins in the presence of SAM by HPLC analysis
T2 sequence (whole entry): T1 sequence (Q9BV86 whole entry)

[3] = biological target: T3, von Hippel-Lindau disease tumor suppressor/N-terminal Xaa-Pro-Lys N-methyltransferase 1 (Homo sapiens) (UniProt P40337+Q9BV86); experiment: PROTAC activity at VHL/NTMT1 in human HCT-116 cells assessed as reduction in NTMT1 protein level incubated for 24 hrs by Western blot analysis; format: cell-based
[4] = biological target: T3, von Hippel-Lindau disease tumor suppressor/N-terminal Xaa-Pro-Lys N-methyltransferase 1 (Homo sapiens); experiment: PROTAC activity at VHL/NTMT1 in human HT-29 cells assessed as reduction in NTMT1 protein level incubated for 24 hrs by Western blot analysis; format: cell-based
[5] = biological target: T3, von Hippel-Lindau disease tumor suppressor/N-terminal Xaa-Pro-Lys N-methyltransferase 1 (Homo sapiens); experiment: PROTAC activity at VHL/NTMT1 in human HCT-116 cells assessed as reduction in NTMT1 protein level at 50 uM incubated for 24 hrs by Western blot analysis; format: cell-based
[6] = biological target: T3, von Hippel-Lindau disease tumor suppressor/N-terminal Xaa-Pro-Lys N-methyltransferase 1 (Homo sapiens); experiment: PROTAC activity at VHL/NTMT1 in human HT-29 cells assessed as reduction in NTMT1 protein level at 50 uM incubated for 24 hrs by Western blot analysis; format: cell-based
HCT-116 [7] = experiment: Cytotoxicity against human HCT-116 cells assessed as reduction in cell viability at 1 to 64 uM incubated for 24 hrs by WST-8 assay; format: toxicity, cell-based; conditions: hct-116, 24 h, dose 1-64 µM
HT-29 = experiment: Cytotoxicity against human HT-29 cells assessed as reduction in cell viability at 1 to 64 uM measured after 24 hrs by WST-8 assay; format: toxicity, cell-based; conditions: ht-29, 24 h, dose 1-64 µM
HCT-116 [8] = experiment: Antiproliferative activity against human HCT-116 cells assessed as reduction in cell proliferation incubated for 72 hrs by fluorescence based microplate reader analysis; format: functional; conditions: dose 1-64 µM
HCT-116 [9] = experiment: Antiproliferative activity against human HCT-116 cells assessed as inhibition of cell proliferation at 1 to 64 uM incubated for 72 hrs by fluorescence based microplate reader analysis relative to control; format: functional; conditions: dose 1-64 µM
HCT-116 [10] = experiment: Antiproliferative activity against NTMT1 knockout human HCT-116 cells at 1 to 64 uM incubated for 72 hrs by fluorescence based microplate reader analysis; format: functional, cell-based; conditions: dose 1-64 µM
HCT-116 [11] = experiment: Antiproliferative activity against human HCT-116 cells assessed as reduction in tumor spheroid growth at 64 uM measured after 12 days by imaging analysis relative to control; format: functional; design: scale not given: the % may be the effect or the level left; conditions: time 12 day
HCT-116 [12] = experiment: Antiproliferative activity against human HCT-116 cells cultured in PG-S assessed as decrease in cell number at 64 uM measured after 3 days by AO/PI staining based cell counter analysis relative to control; format: functional; design: scale not given: the % may be the effect or the level left; conditions: time 3 day
[13] = Upregulation of CALR in human HCT-116 cells assessed as fold change at 25 uM incubated for 24 hrs by Western blot analysis relative to control; format: functional
[14] = biological target: T3, von Hippel-Lindau disease tumor suppressor/N-terminal Xaa-Pro-Lys N-methyltransferase 1 (Homo sapiens); experiment: PROTAC activity at VHL/NTMT1 in human HCT-116 cells assessed as reduction in NTMT1 protein level by measuring maximal efficacy at 0.1 to 50 uM incubated for 24 hrs by Western blot analysis relative to control; format: cell-based; conditions: dose 0.1-50 µM
[15] = biological target: T3, von Hippel-Lindau disease tumor suppressor/N-terminal Xaa-Pro-Lys N-methyltransferase 1 (Homo sapiens); experiment: PROTAC activity at VHL/NTMT1 in human HT-29 cells assessed as reduction in NTMT1 protein level by measuring maximal efficacy at 0.1 to 50 uM incubated for 24 hrs by Western blot analysis relative to control; format: cell-based; conditions: dose 0.1-50 µM
[16] = biological target: T3, von Hippel-Lindau disease tumor suppressor/N-terminal Xaa-Pro-Lys N-methyltransferase 1 (Homo sapiens); experiment: PROTAC activity at VHL/NTMT1 in human HCT-116 cells assessed as reduction in NTMT1 protein level at 50 uM preincubated with MG132 for 2 hrs followed by compound addition and measured after 24 hrs by Western blot analysis; format: cell-based
[17] = biological target: T3, von Hippel-Lindau disease tumor suppressor/N-terminal Xaa-Pro-Lys N-methyltransferase 1 (Homo sapiens); experiment: PROTAC activity at VHL/NTMT1 in human HCT-116 cells assessed as reduction in NTMT1 protein level at 50 uM preincubated with MLN4924 for 2 hrs followed by compound addition and measured after 24 hrs by Western blot analysis; format: cell-based
[18] = biological target: T3, von Hippel-Lindau disease tumor suppressor/N-terminal Xaa-Pro-Lys N-methyltransferase 1 (Homo sapiens); experiment: PROTAC activity at VHL/NTMT1 in human HCT-116 cells co-expressing eGFP fusion protein assessed as reduction in NTMT1 protein level by measuring reduction in eGFP fluorescence at 100 uM incubated for 24 hrs by fluorescence microscopic analysis; format: cell-based
[19] = biological target: T3, von Hippel-Lindau disease tumor suppressor/N-terminal Xaa-Pro-Lys N-methyltransferase 1 (Homo sapiens); experiment: PROTAC activity at VHL/NTMT1 in human HCT-116 cells assessed as reduction in NTMT1 protein level by measuring maximal efficacy at 50 uM measured at 3 hrs by Western blot analysis relative to control; format: cell-based
[20] = biological target: T3, von Hippel-Lindau disease tumor suppressor/N-terminal Xaa-Pro-Lys N-methyltransferase 1 (Homo sapiens); experiment: PROTAC activity at VHL/NTMT1 in human HT-29 cells assessed as reduction in NTMT1 protein level at 50 uM measured upto 6 hrs by Western blot analysis; format: cell-based
[21] = biological target: T3, von Hippel-Lindau disease tumor suppressor/N-terminal Xaa-Pro-Lys N-methyltransferase 1 (Homo sapiens); experiment: PROTAC activity at VHL/NTMT1 in human HT-29 cells assessed as reduction in NTMT1 protein level by measuring maximal efficacy at 50 uM measured after 24 hrs by Western blot analysis relative to control; format: cell-based
[22] = biological target: T3, von Hippel-Lindau disease tumor suppressor/N-terminal Xaa-Pro-Lys N-methyltransferase 1 (Homo sapiens); experiment: PROTAC activity at VHL/NTMT1 in human HT-29 cells assessed as reduction in NTMT1 protein level at 50 uM preincubated with compound for 24 hrs followed by compound washout and measured after 20 hrs by Western blot analysis; format: cell-based
[23] = biological target: T3, von Hippel-Lindau disease tumor suppressor/N-terminal Xaa-Pro-Lys N-methyltransferase 1 (Homo sapiens); experiment: PROTAC activity at VHL/NTMT1 in human HCT-116 cells assessed as reduction in NTMT1 protein level at 50 uM preincubated with compound for 24 hrs followed by compound washout and measured after 20 hrs by Western blot analysis; format: cell-based
[24] = biological target: T4, von Hippel-Lindau disease tumor suppressor/N-terminal Xaa-Pro-Lys N-methyltransferase 2 (Homo sapiens) (UniProt P40337+Q5VVY1); experiment: PROTAC activity at VHL/NTMT2 in human HCT-116 cells assessed as reduction in NTMT2 protein level at 5 to 50 uM incubated for 24 hrs by Western blot analysis; format: cell-based; conditions: dose 5-50 µM
[25] = biological target: T4, von Hippel-Lindau disease tumor suppressor/N-terminal Xaa-Pro-Lys N-methyltransferase 2 (Homo sapiens); experiment: PROTAC activity at VHL/NTMT2 in human HT-29 cells assessed as reduction in NTMT2 protein level at 5 to 50 uM incubated for 24 hrs by Western blot analysis; format: cell-based; conditions: dose 5-50 µM
HCT-116 [26] = experiment: Antiproliferative activity against human HCT-116 cells cultured in PG-S assessed as decrease in cell number measured after 3 days by AO/PI staining based cell counter analysis; format: functional; conditions: time 3.0 day
HCT-116 [27] = experiment: Antiproliferative activity against human HCT-116 cells cultured in PG-S assessed as viable cells upto 64 uM measured after 3 days by AO/PI staining based cell counter analysis relative to control; format: functional; conditions: time 3 day, up to 64 µM
HCT-116 [28] = experiment: Induction of cell cycle arrest in human HCT-116 cells assessed as accumulation of cells at G0/G1 phase incubated for 3 days by PI staining based flow cytometric analysis; format: functional; conditions: time 3.0 day
HCT-116 [29] = experiment: Induction of cell cycle arrest in human HCT-116 cells assessed as G0/G1 phase cells at 64 uM incubated for 3 days by PI staining based flow cytometric analysis (reference value: 65%); format: functional; conditions: time 3 day
HCT-116 [30] = experiment: Induction of cell cycle arrest in human HCT-116 cells assessed as decrease in S phase cells at 64 uM incubated for 3 days by PI staining based flow cytometric analysis; format: functional; conditions: time 3.0 day
HCT-116 [31] = experiment: Downregulation of NTMT1 in human HCT-116 cells at 25 uM incubated for 24 hrs by LC-MS based proteomic analysis; format: functional, cell-based
HCT-116 [32] = experiment: Upregulation of CALR in human HCT-116 cells at 25 uM incubated for 24 hrs by LC-MS based proteomic analysis; format: functional, cell-based
HCT-116 [33] = experiment: Downregulation of NTMT1 in human HCT-116 cells at 25 uM incubated for 24 hrs by Western-blot analysis; format: functional, cell-based

T3 sequence (P40337 whole entry, looked up, one chain of several): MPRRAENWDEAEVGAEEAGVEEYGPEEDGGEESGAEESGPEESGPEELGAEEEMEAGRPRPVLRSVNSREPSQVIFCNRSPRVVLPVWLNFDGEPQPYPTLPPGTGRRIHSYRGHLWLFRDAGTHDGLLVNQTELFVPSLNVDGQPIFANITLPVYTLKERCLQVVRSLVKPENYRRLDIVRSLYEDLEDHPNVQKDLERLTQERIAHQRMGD
T4 sequence (P40337 whole entry, looked up): as the sequence (P40337 whole entry, looked up, one chain of several) above
T4 sequence (Q5VVY1 whole entry, looked up): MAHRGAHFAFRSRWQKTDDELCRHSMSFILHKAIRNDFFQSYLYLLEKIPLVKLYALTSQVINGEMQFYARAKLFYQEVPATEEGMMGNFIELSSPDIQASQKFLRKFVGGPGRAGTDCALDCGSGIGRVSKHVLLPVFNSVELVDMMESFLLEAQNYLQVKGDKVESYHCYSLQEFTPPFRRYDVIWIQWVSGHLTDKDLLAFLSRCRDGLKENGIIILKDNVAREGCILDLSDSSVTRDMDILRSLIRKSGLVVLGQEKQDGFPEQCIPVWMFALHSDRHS

IC50 [1] [nM] | Activity [3] | Activity [4] | Structure (SMILES) | Ratio IC50 [2] | Activity [5] | Activity (HCT-116 [7]) | Activity (HT-29) | Activity (HCT-116 [8]) | inhibition (INH) (HCT-116 [9]) [%] | Activity (HCT-116 [10]) | Activity (HCT-116 [11]) [%] | Activity (HCT-116 [12]) [%] | fold change (FC) [13] | further results
2000 | Dose-Dependent Effect | Dose-Dependent Effect | Cc1ncsc1-c1ccc(CNC(=O)[C@@H]2C[C@@H](O)CN2C(=O)[C@H](C(C)C)N2Cc3ccccc3C2=O)c(OCCOCCNC(=O)c2ccccc2NC(=O)[C@H](CCCCN)NC(=O)[C@@H]2CCCN2C(=O)Cc2cccc3ccccc23)c1 | 2 |  |  |  |  |  |  |  |  |  | 
4380 |  |  | NCCCC[C@H](NC(=O)[C@@H]1CCCN1C(=O)Cc1cccc2ccccc12)C(=O)Nc1ccccc1C(N)=O |  |  |  |  |  |  |  |  |  |  | 
2000 | Dose-Dependent Effect | Dose-Dependent Effect | Cc1ncsc1-c1ccc(CNC(=O)[C@@H]2C[C@@H](O)CN2C(=O)[C@H](C(C)C)N2Cc3ccccc3C2=O)c(OCCOCCOCCOCCNC(=O)c2ccccc2NC(=O)[C@H](CCCCN)NC(=O)[C@@H]2CCCN2C(=O)Cc2cccc3ccccc23)c1 | 2 |  |  |  |  |  |  |  |  |  | 
9180 |  |  | NCCCC[C@H](NC(=O)[C@@H]1CCCN1C(=O)Cc1cccc2ccccc12)C(=O)Nc1ccccc1C(=O)O |  |  |  |  |  |  |  |  |  |  | 

Structure (SMILES) | IC50 [1] [nM] | Activity [3] | Activity [4] | Ratio IC50 [2] | Activity [5] | Activity (HCT-116 [7]) | Activity (HT-29) | Activity (HCT-116 [8]) | inhibition (INH) (HCT-116 [9]) [%] | Activity (HCT-116 [10]) | Activity (HCT-116 [11]) [%] | Activity (HCT-116 [12]) [%] | fold change (FC) [13] | further results
Cc1ncsc1-c1ccc(CNC(=O)[C@@H]2C[C@H](O)CN2C(=O)[C@H](C(C)C)N2Cc3ccccc3C2=O)c(OCCNC(=O)c2ccccc2NC(=O)[C@H](CCCCN)NC(=O)[C@@H]2CCCN2C(=O)Cc2cccc3ccccc23)c1 | 2420 |  |  | 2 | inactive | Non-Toxic | Non-Toxic | Active | 22 | inactive | 32 | 78 | 1.1 | Activity [6]: inactive
Cc1ncsc1-c1ccc(CNC(=O)[C@@H]2C[C@@H](O)CN2C(=O)[C@H](C(C)C)N2Cc3ccccc3C2=O)c(OCCNC(=O)c2ccccc2NC(=O)[C@H](CCCCN)NC(=O)[C@@H]2CCCN2C(=O)Cc2cccc3ccccc23)c1 | 1770 | Dose-Dependent Effect | Dose-Dependent Effect | 2 | Active | Non-Toxic | Non-Toxic | Active | 47 | inactive | 62 | 68 | 1.5 | Emax [14]: > 90%; Emax [15]: > 90%; Activity [16]: inactive; Activity [17]: inactive; Activity [18]: Active; Emax [19]: > 60%; Activity [20]: inactive; Emax [21]: > 90%; Activity [22]: inactive; Activity [23]: inactive; Activity [24]: inactive; Activity [25]: inactive; Activity (HCT-116 [26]): Dose-Dependent Effect; Activity (HCT-116 [27]): >92%; Activity (HCT-116 [28]): Dose-Dependent Effect; Activity (HCT-116 [29]): 71%; Activity (HCT-116 [30]): Active; Activity (HCT-116 [31]): Active; Activity (HCT-116 [32]): Active; Activity (HCT-116 [33]): Active
